Patent US20020137929A1, “1 - (3-heterocyclylphenyl) isothiourea, -isourea, -guanidine and -amidine herbicidal agents” (Intellectual Property Department, BASF Aktiengesellschaft, priority 1998, published 2002)

How the values were obtained:
AMBEL (Ragweed, Common) [1] = assay: Postemergence herbicidal evaluation; type: in vivo, Ambrosia artemisifolia
Summary of the method: (§1)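 ~2-wk seedlings; postemergence spray, 40 psi; vehicle 1:1 acetone:water + 0.5% Tween 20; rate ≈0.0156–0.500 kg/ha; greenhouse hold; scored 4–5 wk after treatment, 0–9 scale vs control; repeat tests averaged.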

[2] = tested on: IPOHE (Morningglory, Ivyleaf); assay: Postemergence herbicidal evaluation; type: in vivo, Ipomoea hederacea
Summary of the method: as §1

[3] = tested on: GLXMAW (Soybean, Williams); assay: Postemergence herbicidal evaluation; type: in vivo, Glycine max, (L.) Merr. cv Williams
Summary of the method: as §1

ZEAMX (Corn, Field) = assay: Postemergence herbicidal evaluation; type: in vivo, Zea mays
Summary of the method: as §1

ABUTH (Velvetleaf) = assay: Preemergence herbicidal evaluation; type: in vivo, Abutilon theophrasti; conditions: rated 4-5 weeks after treatment
Summary of the method: (§2)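 Visual 0-9 rating vs control (stand, vigor, malformation, size, chlorosis, overall appearance), scored 4-5 wk after spraying. Seeded soil cups were treated preemergence with compound in aqueous acetone, ~0.0156-0.500 kg/ha equivalent.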

AMBEL (Ragweed, Common) [4] = assay: Preemergence herbicidal evaluation; type: in vivo, Ambrosia artemisifolia; conditions: rated 4-5 weeks after treatment
Summary of the method: as §2

CASOB (Sicklepod) = assay: Preemergence herbicidal evaluation; type: in vivo, Cassia obtusifolia; conditions: rated 4-5 weeks after treatment
Summary of the method: as §2

GALAP (Galium) = assay: Preemergence herbicidal evaluation; type: in vivo, Galium aparine; conditions: rated 4-5 weeks after treatment
Summary of the method: as §2

ECHCG (Barnyardgrass) = assay: Preemergence herbicidal evaluation; type: in vivo, Echinochloa crus-galli; conditions: rated 4-5 weeks after treatment
Summary of the method: as §2

SETVI (Foxtail, Green) = assay: Preemergence herbicidal evaluation; type: in vivo, Setaria viridis; conditions: rated 4-5 weeks after treatment
Summary of the method: as §2

[5] = tested on: GLXMAW (Soybean, Williams); assay: Preemergence herbicidal evaluation; type: in vivo, Glycine max, (L.) Merr. cv Williams; conditions: rated 4-5 weeks after treatment
Summary of the method: as §2

CYPSE (Flatsedge) = assay: Preemergence weed control under flooded paddy conditions; type: in vivo, Cyperus serotinus; conditions: rated 3-4 weeks after treatment
Summary of the method: (§3)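 First, seeds or propagules go into the top 0.5 cm of silt loam; next, water is held 1.5 to 3 cm over the soil; then compound (50/50 acetone/water) is pipetted into it at about 0.0313 to 0.500 kg/ha; finally plants are rated visually 0-9 after three to four weeks.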

[6] = tested on: SAGPY (Arrowhead (Pygmaea)); assay: as above; type: in vivo, Sagittaria pygmaea; conditions: rated 3-4 weeks after treatment
Summary of the method: as §3

[7] = tested on: ECHORC (Watergrass (Calif.)); assay: Postemergence weed control under flooded paddy conditions; type: in vivo, Echinochloa oryzoides; conditions: postemergence weeds, 3-4 weeks after treatment
Summary of the method: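 Herbicidal effect is judged by eye on a 0–9 scale versus control, 3–4 weeks after dosing. Dosing is into flood water kept 1.5–3 cm over the soil, at about 0.0313–0.500 kg/ha in aqueous/acetone 50/50 v/v, on 3–5 cm weeds and 1.5–2.5-leaf rice seedlings.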

## Cn1c(C(F)(F)F)cc(=O)n(-c2cc(N=C3SCC(=O)N3CCC(=O)O)c(Cl)cc2F)c1=O [Compound 31, 2-{{2-Chloro-5-[3,6-dihydro-3-methyl-2,6-dioxo-4-(trifluoromethyl)-1(2H)-pyrimidinyl]-4-fluoro-phenyl}imino}-4-oxo-3-thiazolidinepropionic acid]
AMBEL (Ragweed, Common) [1]; Rate 0.0158 kg/ha
  Postemergence herbicidal rating AMBEL: 0.0
AMBEL (Ragweed, Common) [1]; Rate 0.0315 kg/ha
  Postemergence herbicidal rating AMBEL: 2.0
AMBEL (Ragweed, Common) [1]; Rate 0.0630 kg/ha
  Postemergence herbicidal rating AMBEL: 7.0
[2]; Rate 0.0158 kg/ha
  Postemergence herbicidal rating IPOHE: 9.0
[2]; Rate 0.0315 kg/ha
  Postemergence herbicidal rating IPOHE: 9.0
[2]; Rate 0.0630 kg/ha
  Postemergence herbicidal rating IPOHE: 9.0
[3]; Rate 0.0158 kg/ha
  Postemergence herbicidal rating GLXMAW: 6.5
[3]; Rate 0.0315 kg/ha
  Postemergence herbicidal rating GLXMAW: 6.5
[3]; Rate 0.0630 kg/ha
  Postemergence herbicidal rating GLXMAW: 7.0
ZEAMX (Corn, Field); Rate 0.0158 kg/ha
  Postemergence herbicidal rating ZEAMX: 7.0
ZEAMX (Corn, Field); Rate 0.0315 kg/ha
  Postemergence herbicidal rating ZEAMX: 7.5
ZEAMX (Corn, Field); Rate 0.0630 kg/ha
  Postemergence herbicidal rating ZEAMX: 8.0
ABUTH (Velvetleaf); rate 0.0625 kg/ha
  Preemergence herbicidal rating ABUTH: 0.0
ABUTH (Velvetleaf); rate 0.1250 kg/ha
  Preemergence herbicidal rating ABUTH: 9.0
ABUTH (Velvetleaf); rate 0.2500 kg/ha
  Preemergence herbicidal rating ABUTH: 9.0
AMBEL (Ragweed, Common) [4]; rate 0.0625 kg/ha
  Preemergence herbicidal rating AMBEL: 0.0
AMBEL (Ragweed, Common) [4]; rate 0.1250 kg/ha
  Preemergence herbicidal rating AMBEL: 4.0
AMBEL (Ragweed, Common) [4]; rate 0.2500 kg/ha
  Preemergence herbicidal rating AMBEL: 9.0
CASOB (Sicklepod); rate 0.0625 kg/ha
  Preemergence herbicidal rating CASOB: 0.0
CASOB (Sicklepod); rate 0.1250 kg/ha
  Preemergence herbicidal rating CASOB: 2.0
CASOB (Sicklepod); rate 0.2500 kg/ha
  Preemergence herbicidal rating CASOB: 1.0
GALAP (Galium); rate 0.0625 kg/ha
  Preemergence herbicidal rating GALAP: 0.0
GALAP (Galium); rate 0.2500 kg/ha
  Preemergence herbicidal rating GALAP: 6.0
ECHCG (Barnyardgrass); rate 0.0625 kg/ha
  Preemergence herbicidal rating ECHCG: 0.0
ECHCG (Barnyardgrass); rate 0.1250 kg/ha
  Preemergence herbicidal rating ECHCG: 9.0
ECHCG (Barnyardgrass); rate 0.2500 kg/ha
  Preemergence herbicidal rating ECHCG: 9.0
SETVI (Foxtail, Green); rate 0.0625 kg/ha
  Preemergence herbicidal rating SETVI: 1.0
SETVI (Foxtail, Green); rate 0.1250 kg/ha
  Preemergence herbicidal rating SETVI: 9.0
SETVI (Foxtail, Green); rate 0.2500 kg/ha
  Preemergence herbicidal rating SETVI: 9.0
[5]; rate 0.0625 kg/ha
  Preemergence herbicidal rating GLXMAW: 3.0
[5]; rate 0.1250 kg/ha
  Preemergence herbicidal rating GLXMAW: 5.0
[5]; rate 0.2500 kg/ha
  Preemergence herbicidal rating GLXMAW: 6.0
CYPSE (Flatsedge); 0.0625 kg/ha
  Herbicidal rating CYPSE: 0.0
CYPSE (Flatsedge); 0.1250 kg/ha
  Herbicidal rating CYPSE: 0.0
CYPSE (Flatsedge); 0.2500 kg/ha
  Herbicidal rating CYPSE: 0.0
[6]; 0.0625 kg/ha
  Herbicidal rating SAGPY: 0.0
[6]; 0.1250 kg/ha
  Herbicidal rating SAGPY: 0.0
[6]; 0.2500 kg/ha
  Herbicidal rating SAGPY: 0.0
[7]; rate 0.0625 kg/ha
  Herbicidal rating ECHORC: 1.0
[7]; rate 0.1250 kg/ha
  Herbicidal rating ECHORC: 2.0
[7]; rate 0.2500 kg/ha
  Herbicidal rating ECHORC: 5.0
